Measurements reported in article PMC10581251, “Antisense inhibition of RNA polymerase α subunit of Clostridioides difficile” (Microbiology Spectrum, 2023).
Values after ≈ are worked out from the molar mass of the structure shown. Read-outs that look alike come from different tables or passages of the source.

Legend:
[1] = test system: spore formation by C. difficile ATCC 630; assay: Spore formation inhibition; assay type: cell-based, Clostridioides difficile; conditions: 0.5× MIC, 12 hours, compared to negative control (no treatment); for log reduction in the spore count: triplicate
Experimental: After the incubation period, the total bacterial count for each treatment group was determined by serial dilution and plating on BHIS agar plates supplemented with 0.1% taurocholic acid. To determine the presence of spores, the remaining bacterial culture from each treatment group was heated at 65°C for 30 minutes to ensure all vegetative cells were killed. The bacterial culture from each treatment group was then serially diluted and plated on BHIS agar plates supplemented with 0.1% taurocholic acid. The plates were incubated overnight, and the CFU counts for each treatment group were determined the following day.

[2] = test system: C. difficile 1071; assay: MIC/MBC broth microdilution, C. difficile 1071; assay type: cell-based, Clostridioides difficile; conditions: for MIC: broth microdilution, anaerobic 48 hours 37°C, visual, read-out: MIC; for MBC: plated on BHIS agar, read-out: MBC
Experimental: (§1) The susceptibility of C. difficile isolates to the CPP-PNA conjugates or to the CPP alone was determined in vitro as described before with slight modifications ([43] [–] [45]). Briefly, the CPP-PNA conjugates, the CPP alone, and the antibiotics vancomycin and fidaxomicin were added in triplicate to the first row of ultra-low adhesion 96-well plates (Corning Inc., Corning, NY). A suspension of C. difficile equivalent to 0.5 McFarland solution was added to Mueller-Hilton II broth, which was then added to the ultra-low adhesion plate and then serially diluted. The plates were incubated anaerobically for 48 hours at 37°C. The minimum inhibitory concentration was defined as the lowest concentration of the CPP-PNA conjugate that could inhibit bacterial growth when observed visually.
(§2) The MIC and MBC experiments were repeated twice.

[3] = test system: C. difficile ATCC 43255; assay: MIC/MBC broth microdilution, C. difficile ATCC 43255; assay type: cell-based, Clostridioides difficile; conditions: for MIC: broth microdilution, anaerobic 48 hours 37°C, visual, read-out: MIC; for MBC: plated on BHIS agar, read-out: MBC
Experimental: as §1, §2

[4] = test system: gut microflora strains (Lactobacillus sp., Bacteroides sp., and Bifidobacterium sp.); assay: Growth inhibition of representative gut microflora strains (summary); assay type: cell-based; conditions: broth microdilution, 48 hours
Experimental: The susceptibility of gut microflora strains to the rpoA-TAT conjugate was determined using the broth microdilution assay, as described above. Briefly, bacterial suspensions of Bifidobacterium sp. and Bacteroides sp., in supplemented BHIS broth, and Lactobacilli strains, in MRS broth, were added to ultra-low adhesion 96-well plates and serially diluted. The MIC was recorded after 48 hours.

[5] = test system: toxin B (tcdB) gene of C. difficile ATCC 630; assay: RT-PCR toxin B (tcdB) gene expression; assay type: cell-based, Clostridioides difficile; conditions: 12 hours, qPCR
Experimental: (§3) The antisense effect of the rpoA-TAT conjugate was evaluated using a real-time quantitative reverse-transcriptase polymerase chain reaction (RT-PCR) assay ([11], [12]). Briefly, an overnight culture of C. difficile ATCC 630 was diluted in fresh Mueller-Hilton broth II and added in triplicate to low-adhesion microcentrifuge tubes. […] The tubes were incubated anaerobically at 37°C for 12 hours following which the bacterial pellet in each treatment group was collected by centrifugation at 10,000 × g for 10 minutes. Bacteria were subsequently lysed with recombinant lysostaphin (100 µg/mL) in Tris-EDTA (TE) buffer (1 mol/L Tris, 0.5 mol/L ethylenediaminetetraacetate pH 8, nuclease-free H20), and total RNA was extracted using the TRIzol Max Bacterial Isolation Kit as per the manufacturer’s instructions. Turbo DNAse was used to remove genomic DNA contamination from each sample as per the protocol. cDNA was synthesized using the SuperScript III First-Strand Synthesis Kit as per the manufacturer’s instructions. The relative quantification of cDNA for each treatment group was determined using the iTaq Universal SYBR Green One-Step Kit and CFX96 Real-Time PCR Detection System per the manufacturer’s instructions.
(§4) The constitutively expressed tpi gene was used as an internal control. Real-time RT-PCR results were analyzed using the 2^-ΔΔCT method.

[6] = test system: rpoA gene (RNA polymerase α subunit) of C. difficile ATCC 630; assay: RT-PCR rpoA gene expression; assay type: cell-based, Clostridioides difficile; conditions: 12 hours, qPCR
Experimental: as §3, §4

[7] = test system: spoOA gene of C. difficile ATCC 630; assay: RT-PCR spoOA gene expression; assay type: cell-based; conditions: 12 hours, qPCR
Experimental: as §3, §4

[8] = test system: toxin A (tcdA) gene of C. difficile ATCC 630; assay: RT-PCR toxin A (tcdA) gene expression; assay type: cell-based, Clostridioides difficile; conditions: 12 hours, qPCR
Experimental: as §3, §4

[9] = Clostridioides difficile, ATCC43255

Compound: CCc1c(Cl)c(O)c(Cl)c(O)c1C(=O)O[C@H]1[C@H](O)[C@H](OC)[C@H](OC/C2=C\C=C\C[C@H](O)/C(C)=C/[C@H](CC)[C@@H](O[C@@H]3OC(C)(C)[C@@H](OC(=O)C(C)C)[C@H](O)[C@@H]3O)/C(C)=C/C(C)=C/C[C@@H]([C@@H](C)O)OC2=O)O[C@@H]1C [Fidaxomicin, fidaxomicin]
- reduction in the spore count [1]: 99.9%
- log reduction in the spore count [1]: 3.44 log
- MIC ([2]; Clostridioides difficile, 1071): 1 µM (≈ 1.06 µg/mL)
- MBC ([2]; Clostridioides difficile, 1071): 1 µM (≈ 1.06 µg/mL)
- MIC [3, 9]: 0.5 µM (≈ 0.529 µg/mL)
- MBC [3, 9]: 0.5 µM (≈ 0.529 µg/mL)

Compound: GRKKKRRQRRRYK-O-CATGGACAAAAC-NH2 [rpoA-TAT, PNA oligomer antisense to C. difficile rpoA covalently conjugated to the TAT cell penetrating peptide]
- reduction in the spore count [1]: 99.9%
- log reduction in the spore count [1]: 3.44 log
- MIC [2]: 8 µM
- MBC [2]: 8 µM
- concentration without growth inhibition of gut microflora strains [4]: > 32 µM
- reduction of toxin B (tcdB) gene expression ([5]; 0.125× MIC (1 µM)): 26%
- reduction of toxin B (tcdB) gene expression ([5]; 0.25× MIC (2 µM)): 51.2%
- reduction of toxin B (tcdB) gene expression ([5]; 0.5× MIC (4 µM)): 74.5%
- reduction of rpoA gene expression ([6]; 0.125× MIC (1 µM), tpi internal control): 34%
- reduction of rpoA gene expression ([6]; 0.25× MIC (2 µM)): 46.3%
- reduction of rpoA gene expression ([6]; 0.5× MIC (4 µM)): 78.2%
- reduction of spoOA gene expression ([7]; 0.125× MIC (1 µM)): 45.2%
- reduction of spoOA gene expression ([7]; 0.25× MIC (2 µM)): 58.4%
- reduction of spoOA gene expression ([7]; 0.5× MIC (4 µM)): 68.5%
- reduction of toxin A (tcdA) gene expression ([8]; 0.125× MIC (1 µM)): 41.3%
- reduction of toxin A (tcdA) gene expression ([8]; 0.25× MIC (2 µM)): 50.7%
- reduction of toxin A (tcdA) gene expression ([8]; 0.5× MIC (4 µM)): 71.2%
- MIC [3]: 8 µM
- MBC [3]: 8 µM
